According to publication PMC4105567, “Aurora Kinases as Druggable Targets in Pediatric Leukemia: Heterogeneity in Target Modulation Activities and Cytotoxicity by Diverse Novel Therapeutic Agents” (PLoS ONE, 2014):
Where two headings read alike, the source gives them in different places.

Key:
C1 B-ALL cell line = test: Cytotoxicity assay, C1; type: cell-based, human; settings: four days in culture, Alamar blue assay or automated microscopy, ± SD, three experiments
Procedure: (§1) Cell lines were cultured in Opti-MEM medium (Gibco, Life Technologies Corporation, Burlington, Ontario) supplemented with 10% heat inactivated fetal bovine serum (FBS) (Gibco), 100 units/ml penicillin and 100 units/ml streptomycin (Gibco) and 0.05 mM 2-mercaptoethanol (Sigma-Aldrich, Oakville, Ontario) in T25 flasks (Nalge Nunc, Rochester, New York) or T75 flasks (Corning Incorporated, Corning, New York). All cell cultures were maintained at 37°C in a humidified incubator with 5% CO2.
(§2) For cytotoxicity profiling of Aurora kinase inhibitors against leukemia cell lines, inhibitors or vehicle control (DMSO, Sigma-Aldrich) were diluted in 100 µl of Opti-MEM per well in 96 well plates (Grenier Bio-One, Monroe, North Carolina) in triplicate at final concentrations ranging from 1×10^−6 to 10 µM. 1×10^4 cells per well were seeded and plates were incubated for 4 days. Following incubation for 4 days, cell survival was quantified by Alamar blue assay (Invitrogen) or automated inverted microscopy using the Celigo Cell Cytometer (Cyntellect, San Diego, California). […] During this period of incubation, the absorbance at 570–620 nm was measured (Opsys MR Plate Reader, Dynex Technologies, Chantilly, Virginia) at various time points, depending on the cell line or sample. Percent survival was calculated by comparing the absorbance ratio of the test well to the control well multiplied by 100%, as indicated in the following formula: […]
(§3) For automated inverted microscopy, the number of cells in each well was determined using the direct cell counting application as described previously. Briefly, following adjustment of image acquisition settings for bright-field imaging, the wells containing cells and appropriate dilutions of inhibitors were individually scanned. Based on these images, analysis parameters, including intensity threshold and cell diameter, were modified for optimal inclusion of viable cells in treated and control wells. These parameters were applied for subsequent replicates involving the same leukemia cell line or sample. The percent survival was then calculated as a ratio of the number of cells in treated wells to the number of cells in control wells multiplied by 100%. Given that Aurora kinase inhibitors interfere with cytokinesis, cells that are committed to death may still contain enlarging but intact cytoplasmic content before the eventual loss of cytoplasmic membrane integrity. The accuracy of Alamar blue assay may be, in theory, affected by the timing of these events.

SEM B-ALL cell line = test: Cytotoxicity assay, SEM; type: cell-based; settings: Homo sapiens, 96 h, four days in culture, Alamar blue assay or automated microscopy, ± SD, three experiments
Procedure: as §1, §2, §3

B1 B-ALL cell line = test: Cytotoxicity assay, B1; type: cell-based, human; settings: four days in culture, Alamar blue assay or automated microscopy, ± SD, three experiments
Procedure: as §1, §2, §3

UOCB1 B-ALL cell line = test: Cytotoxicity assay, UOCB1; type: cell-based, human; settings: four days in culture, Alamar blue assay or automated microscopy, ± SD, three experiments
Procedure: as §1, §2, §3

Nalm6 B-ALL cell line = test: Cytotoxicity assay, Nalm6; type: cell-based, human; settings: four days in culture, Alamar blue assay or automated microscopy, ± SD, three experiments
Procedure: as §1, §2, §3

KOPN8 B-ALL cell line = test: Cytotoxicity assay, KOPN8; type: cell-based, human; settings: four days in culture, Alamar blue assay or automated microscopy, ± SD, three experiments
Procedure: as §1, §2, §3

CEM T-ALL cell line = test: Cytotoxicity assay, CEM; type: cell-based, human; settings: four days in culture, Alamar blue assay or automated microscopy, ± SD, three experiments
Procedure: as §1, §2, §3

Molt-3 T-ALL cell line = test: Cytotoxicity assay, Molt-3; type: cell-based, human; settings: T-ALL cell line Molt-3, four days in culture, Alamar blue assay or automated microscopy, ± SD, three experiments
Procedure: as §1, §2, §3

Molm13 AML cell line = test: Cytotoxicity assay, Molm13; type: cell-based, human; settings: four days in culture, Alamar blue assay or automated microscopy, ± SD, three experiments
Procedure: as §1, §2, §3

MV4-11 AML cell line = test: Cytotoxicity assay, MV4-11; type: cell-based, human; settings: AML cell line MV4-11, four days in culture, Alamar blue assay or automated microscopy, ± SD, three experiments
Procedure: as §1, §2, §3

TIB-202 AML cell line = test: Cytotoxicity assay, TIB-202; type: cell-based, human; settings: AML cell line TIB-202, four days in culture, Alamar blue assay or automated microscopy, ± SD, three experiments
Procedure: as §1, §2, §3

NB4 APML cell line = test: Cytotoxicity assay, NB4; type: cell-based, human; settings: four days in culture, Alamar blue assay or automated microscopy, ± SD, three experiments
Procedure: as §1, §2, §3

HL-60 APML cell line = test: Cytotoxicity assay, HL-60; type: cell-based, human; settings: APML cell line HL-60, four days in culture, Alamar blue assay or automated microscopy, ± SD, three experiments
Procedure: as §1, §2, §3

HL-60 RA APML cell line = test: Cytotoxicity assay, HL-60 RA; type: cell-based, human; settings: APML cell line HL-60 RA, four days in culture, Alamar blue assay or automated microscopy, ± SD, three experiments
Procedure: as §1, §2, §3

Normal Lymphocytes = test: Cytotoxicity assay, normal lymphocytes; type: cell-based, human; settings: normal lymphocytes (control for non-leukemia cytotoxicity), four days in culture, ± SD, three experiments
Procedure: (§4) These include B-ALL (Patient #1), relapsed AML (Patient #2), AML/CML (Patient #3), infant ALL (Patient #4), and initial ALL presenting with secondary AML (Patient #5). […] The diluted sample was then layered on a Ficoll-Paque (GE Healthcare, Piscataway, New Jersey) gradient at a 1∶2 ratio of Ficoll to diluted sample. Samples were then centrifuged 1800 rpm for 20 minutes at room temperature. The buffy coat was removed with a pipette and transferred to a new centrifuge tube and diluted with PBS. After an additional centrifugation at 1200 rpm, the white blood cell pellet was washed with PBS and centrifuged one last time. Cells were re-suspended in Opti-MEM and viable cells were counted using trypan blue (Invitrogen, Life Technologies Corporation, Burlington, Ontario) exclusion on a haemocytometer. An identical protocol was followed for the isolation of white blood cells, referred to as “normal lymphocytes” in the following paragraphs, from healthy volunteers. Samples grown in culture for up to six months were cultured in Opti-MEM medium supplemented with 10% heat inactivated FBS, penicillin/streptomycin and 2-mercaptoethanol.
as §2, §3

Bone Marrow Stroma = test: Cytotoxicity assay, bone marrow stroma; type: cell-based, human; settings: bone marrow stroma (control for non-leukemia cytotoxicity), four days in culture, ± SD, three experiments
Procedure: as §2, §3

[1] = tested on: Patient #1 B-ALL primary leukemia cells; test: Cytotoxicity assay, primary sample Patient #1; type: cell-based, human; settings: four days in culture, Alamar blue assay or automated microscopy, one complete study
Procedure: as §4, §2, §3

[2] = tested on: Patient #2 relapsed AML primary leukemia cells; test: Cytotoxicity assay, primary sample Patient #2; type: cell-based, human; settings: four days in culture, Alamar blue assay or automated microscopy, one complete study
Procedure: as §4, §2, §3

[3] = tested on: Patient #3 AML/CML primary leukemia cells; test: Cytotoxicity assay, primary sample Patient #3; type: cell-based, human; settings: Homo sapiens, 96 h, four days in culture, Alamar blue assay or automated microscopy, one complete study
Procedure: as §4, §2, §3

[4] = tested on: Patient #4 infant leukemia primary cells; test: Cytotoxicity assay, primary sample Patient #4; type: cell-based, human; settings: four days in culture, Alamar blue assay or automated microscopy, one complete study
Procedure: as §4, §2, §3

[5] = tested on: Patient #5 ALL/AML primary leukemia cells; test: Cytotoxicity assay, primary sample Patient #5; type: cell-based, human; settings: primary sample, four days in culture, Alamar blue assay or automated microscopy, one complete study, read-out: IC50, Patient #5 ALL/AML
Procedure: as §4, §2, §3

[6] = tested on: normal cells versus leukemia cell lines; test: Comparison of cytotoxicity IC50 values, normal cells versus leukemia cell lines; type: cell-based, human; settings: normal lymphocytes and bone marrow stroma versus leukemia cell lines of Table 2
Procedure: as §2, §3

Aurora-A = tested on: Aurora-A; set-up: method as in earlier work; settings: literature values; ref [10],[22],[27],[40],[44]–[64] as listed per inhibitor in Table 1; read-out: Targets (IC50 Value): Aurora-A; cited from earlier work
Aurora-B = tested on: Aurora-B; set-up: method as in earlier work; settings: literature values; ref [10],[22],[27],[40],[44]–[64] as listed per inhibitor in Table 1; read-out: Targets (IC50 Value): Aurora-B; cited from earlier work

`CCN(CCCOc1ccc2c(Nc3cc(CC(=O)Nc4cccc(F)c4)n[nH]3)ncnc2c1)CCOP(=O)(O)O` [AZD1152] showed an IC50 (C1 B-ALL cell line; Homo sapiens, 96 h) of 0.8 nM, an IC50 (SEM B-ALL cell line) of 100 ± 60 nM and an IC50 (B1 B-ALL cell line; Homo sapiens, 96 h) of 200 ± 100 nM. For the same molecule, the IC50 (UOCB1 B-ALL cell line; Homo sapiens, UoC-B1, 96 h) was 0.6 nM, the IC50 (Nalm6 B-ALL cell line; Homo sapiens, NALM-6, 96 h) was 8 ± 2 nM and the IC50 (KOPN8 B-ALL cell line; Homo sapiens, KOPN-8, 96 h) was 0.2 nM. The IC50 (CEM T-ALL cell line; Homo sapiens, 96 h) was under 0.001 nM, the IC50 (Molt-3 T-ALL cell line; Homo sapiens, 96 h) was under 0.001 nM and the IC50 (Molm13 AML cell line; Homo sapiens, MOLM-13, 96 h) was 7 ± 3 nM. For the same molecule, the IC50 (MV4-11 AML cell line; Homo sapiens, 96 h) was 0.9 nM, the IC50 (TIB-202 AML cell line; Homo sapiens, 96 h) was 500 ± 200 nM and the IC50 (NB4 APML cell line; Homo sapiens, 96 h) was 50 ± 20 nM. The IC50 (HL-60 APML cell line; Homo sapiens, 96 h) was 300 ± 90 nM, the IC50 (HL-60 RA APML cell line; Homo sapiens, 96 h) was 0.7 nM and the IC50 (Normal Lymphocytes; Homo sapiens, Lymphocyte, 96 h) was over 10000 nM. For the same molecule, the IC50 (Bone Marrow Stroma; Homo sapiens, 96 h) was over 10000 nM, the IC50 ([1]; Homo sapiens, 96 h) was 0.005 nM and the IC50 ([2]; Homo sapiens, 96 h) was 600 nM. The IC50 [3] was over 10000 nM, the IC50 ([4]; Homo sapiens, 96 h) was over 10000 nM and the IC50 ([5]; Homo sapiens, 96 h) was 0.02 nM. The “IC50 values for the normal cells compared with IC50 values for the leukemia cell lines (potential therapeutic window)” value [6] was “higher than the IC50 values for the leukemia cell lines”, the IC50 (Aurora-A) was […] and the IC50 (Aurora-B) was […].

`CN(C)c1ccc(-c2nc3ncc(Cl)c(N4CCN(CC(=O)Nc5nccs5)CC4)c3[nH]2)cc1` [CCT129202] gave an IC50 (C1 B-ALL cell line) of 3000 ± 800 nM, an IC50 (B1 B-ALL cell line) of 3000 ± 600 nM and an IC50 (UOCB1 B-ALL cell line) of 900 ± 90 nM. It also gave an IC50 (Nalm6 B-ALL cell line) of 2000 ± 800 nM, an IC50 (KOPN8 B-ALL cell line) of 700 ± 100 nM and an IC50 (CEM T-ALL cell line) of 900 ± 50 nM. The IC50 (Molt-3 T-ALL cell line) was 2000 ± 600 nM, the IC50 (Molm13 AML cell line) was 5000 ± 900 nM and the IC50 (MV4-11 AML cell line) was 100 ± 60 nM. It also gave an IC50 (TIB-202 AML cell line) of 50 ± 5 nM, an IC50 (NB4 APML cell line) of over 10000 nM and an IC50 (HL-60 APML cell line) of 7000 ± 800 nM. It also gave an IC50 (HL-60 RA APML cell line) of 8000 ± 500 nM, an IC50 (Normal Lymphocytes) of over 10000 nM and an IC50 (Bone Marrow Stroma) of 1000 ± 700 nM. The IC50 [1] was 700 nM, the IC50 [2] was 400 nM and the IC50 [4] was over 10000 nM. For the same molecule, the IC50 [5] was 70 nM, the “IC50 values for the normal cells compared with IC50 values for the leukemia cell lines (potential therapeutic window)” value [6] was “lower than the IC50 values for the normal cells, but not as pronounced” and the IC50 (Aurora-A) was 40 nM. The IC50 (Aurora-B) was 200 nM.
